Test results taken from patent US20170002048A1, “METHOD FOR PURIFYING AND RE[…] BODIES OF SCORPION TOXIN PROTEIN AND THEIR USE” (GUANGZHOU GLAM BIOTECHNOLOGY CO., LTD., priority 2015, published 2017).

Test system: HepG2 tumor
Assay: Anti-tumor activity in vivo, HepG2 mice model
Parameters: species or system CD-1 nu/nu mice
Settings: CHis6-rAGAP 1 and 2 mg/kg, 5-FU 25 mg/kg, every 2 days
Protocol: The CD-1 nu/nu mice (thymus removed, bodyweight 16˜18 g, half male and half female) were purchased from Shanghai Experiment Animal Center of Chinese Academy of Sciences. The mice were subcutaneously injected 5×10^6 HepG2 cells to make a model, when the tumor volume was grew to about 100 mm^3, the mice were randomized into four groups, 10 mice in each group, the experiment groups were respectively injected 1 mg/kg and 2 mg/kg of CHis6-rAGAP, the positive control group were injected 25 mg/kg of 5-FU, the negative control group was injected with normal saline, the volumes were all 200 μl/2 days. The change of tumor volume and bodyweight of the mice were determined every 2 days, after 18 days the mice were killed, and the tumor were taken out. […] In order to evaluate the influence of CHis6-rAGAP and 5-FU on life quality of the mice, change of mice bodyweight was also determined during the experiment. […] Furthermore, after 18 days of drug administration, there was no death case in the mice of CHis6-rAGAP administration group, whereas 40% of the mice in 5-FU group were dead.

O=c1[nH]cc(F)c(=O)[nH]1 [5-FU]
death of mice after 18 days of drug administration: 40%
influence on bodyweight of the mice (18 days): reduced significantly
